Experimental data from patent US20210115104A1, “AMYLIN ANALOGUES” (Zealand Pharma A/S, priority 2015, published 2021).
*1 amine or outer side, *2 acyl side, *3 side chain or, on linkers, in order; H or OH if unused. Where a SMILES comes first, the peptide text is derived from it. Bridges are numbered along the chain shown (N, C = ends). [ ]: non-standard residue; d: D form. The star is where a group is joined. C20 diacid = O=C(O)CCCCCCCCCCCCCCCCCCC(=O)*; γGlu = O=C(O)[C@H](CCC(=O)[*:2])N[*:1]; Hyp = O=C(O)[C@@H]1C[C@@H](O)CN1; NMeI = CC[C@H](C)[C@H](NC)C(=O)O; Sar = CNCC(=O)O

Experiments:
[1] = target: T1, human amylin receptor 3 (hAMYR3), hCTR2 co-expressed with hRAMP3 (Homo sapiens, UniProt O60896+P30988); experiment: hAMYR3 cAMP assay (AlphaScreen) in COS7 cells; format: cell-based; details: cAMP induction, COS7 cells expressing hAMYR3; Table 1; read-out: hAMYR3 EC50
T1 construct: expressed in transfected cells
T1 sequence (P30988 25-474): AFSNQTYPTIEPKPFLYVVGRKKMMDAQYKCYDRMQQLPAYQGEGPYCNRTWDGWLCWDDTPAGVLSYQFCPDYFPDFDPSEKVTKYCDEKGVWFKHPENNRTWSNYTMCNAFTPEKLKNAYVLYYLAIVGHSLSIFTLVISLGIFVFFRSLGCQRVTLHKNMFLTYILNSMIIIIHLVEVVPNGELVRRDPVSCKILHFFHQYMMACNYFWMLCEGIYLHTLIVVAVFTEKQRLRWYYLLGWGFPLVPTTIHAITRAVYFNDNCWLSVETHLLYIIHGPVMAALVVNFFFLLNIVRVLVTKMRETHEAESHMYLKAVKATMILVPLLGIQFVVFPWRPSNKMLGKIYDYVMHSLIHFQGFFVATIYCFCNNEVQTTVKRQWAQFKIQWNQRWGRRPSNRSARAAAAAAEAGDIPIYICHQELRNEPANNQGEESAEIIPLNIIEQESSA
T1 sequence (O60896 24-148 partner): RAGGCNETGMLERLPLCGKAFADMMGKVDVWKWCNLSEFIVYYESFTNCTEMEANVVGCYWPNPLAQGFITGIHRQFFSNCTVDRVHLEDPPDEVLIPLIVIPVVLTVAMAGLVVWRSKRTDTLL
Method in brief: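 EC50 values derive from 4PL curve fits of cAMP (AlphaScreen) in lysates of RAMP-naive COS7 cells stably carrying hCTR2 plus hRAMP3. Peptide dilution series were applied for 15 min at 37 °C in pH 7.4 Tyrode buffer containing 100 µM IBMX and 0.1% casein.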

[2] = Assessment of physical stability (Thioflavin T fibrillation); format: physicochemical; parameters: key: FND = fibrillation not detected; FD = fibrillation detected; details: 1 mg/ml, 40° C., ThT; for Fibrillation pH 4.0 (Ac): 50 mM acetate buffer pH 4.0, 96 hours; for Fibrillation pH 7.0 (His): 50 mM histidine buffer pH 7.0, 96 hours; for Fibrillation pH 7.0 (Phos.): 50 mM phosphate buffer pH 7.0, 96 hours
Method in brief: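 Fibrillation lag-time, in hours, taken where regressions of the initial stable phase and the growth phase intersect. ThT (40 μM) fluorescence monitored at 40 °C for 96 h, 10-min reads each preceded by 300 s mixing. Peptide at 1 mg/ml in 50 mM buffers: phosphate or histidine pH 7.0, acetate pH 4.0.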

[3] = Pharmacokinetic (PK) profiling in rats; format: in vivo, rat; parameters: CI/F (apparent clearance values): unit not given here; details: Sprague Dawley male rats, single sc 30 nmol/kg; for half-life: rat, plasma, read-out: Plasma terminal elimination half-life t1/2 (converted)
Procedure: Sprague Dawley male rats were given a single subcutaneous (sc) bolus of each peptide to be tested, as specified below. 30 nmol/kg doses of compound were administered. Blood samples were drawn from the tail vein prior to dosing and at 24, 48, 72, 96 and 168 hours after dosing. Blood samples were taken from two rats at each time point, and only 2 blood samples were drawn from each rat, i.e. […] were used for each compound. The rats were euthanized immediately after the last blood sampling by concussion and cervical dislocation.
The dosing vehicle used for each test peptide was a mannitol-containing histidine buffer (pH 7.0). Plasma samples were analyzed after precipitation with ethanol by liquid chromatography mass spectrometry (LC-MS/MS). Mean plasma concentrations were used for calculation of the pharmacokinetic parameters using the non-compartmental approach in Phoenix WinNonlin 6.3.
Plasma terminal elimination half-life (t1/2) was determined as ln(2)/λz, where λz is the magnitude of the slope of the log linear regression of the log concentration versus time profile during the terminal phase. Apparent clearance (CL/F) was determined as dose/AUCinf (sc), where AUCinf is the area under the plasma concentration vs. time curve extrapolated to infinity (AUCinf=AUClast+Clast/λz, where Clast is the last observed plasma concentration).

| SMILES | EC50 [1] | Fibrillation pH 4.0 (Ac) [2] | Fibrillation pH 7.0 (His) [2] | Fibrillation pH 7.0 (Phos.) [2] | CI/F (apparent clearance values) [3] | half-life [3] |
| --- | --- | --- | --- | --- | --- | --- |
| CC[C@H](C)[C@@H](C(=O)N[C@@H](CC(C)C)C(=O)N[C@@H](CO)C(=O)N[C@@H](CO)C(=O)N[C@H](C(=O)N[C@@H](CCC(=O)O)C(=O)N[C@H](C(=O)NCC(=O)N[C@@H](CO)C(=O)N[C@@H](CO)C(=O)N[C@H](C(=O)N1CCC[C@H]1C(N)=O)[C@@H](C)O)C(C)C)[C@@H](C)O)N(C)C(=O)[C@H](C)NC(=O)CN(C)C(=O)[C@H](Cc1ccccc1)NC(=O)[C@H](CO)NC(=O)[C@H](CO)NC(=O)[C@H](CCCNC(=N)N)NC(=O)[C@H](CCC(=O)O)NC(=O)[C@H](CC(C)C)NC(=O)[C@H](Cc1ccccc1)NC(=O)[C@H](Cc1c[nH]cn1)NC(=O)[C@H](C)NC(=O)[C@H](CC(C)C)NC(=O)[C@H](CCCNC(=N)N)NC(=O)[C@H](CCC(=O)O)NC(=O)[C@@H](NC(=O)[C@H](C)NC(=O)[C@@H]1CSSC[C@H](NC(=O)[C@H](CCCNC(=N)N)NC(=O)CC[C@H](NC(=O)CCCCCCCCCCCCCCCCCCC(=O)O)C(=O)O)C(=O)NCC(=O)N[C@@H]([C@@H](C)O)C(=O)N[C@@H](C)C(=O)N[C@@H]([C@@H](C)O)C(=O)N1)[C@@H](C)O [Compound 36, [19CD]-isoGlu-R-C( )-GTAT-C( )-ATERLAHFLERSSF-Gly(Me)-A-Ile(Me)-LSSTEVGSSTP-NH2] ({C20 diacid-γGlu}-RCGTATCATERLAHFLERSSF[Sar]A[NMeI]LSSTEVGSSTP-NH2; disulfide 2-7) | 0.36 nM | FND | FND | FD | 0.0117 | 25.7 h |
| CC[C@H](C)[C@@H](C(=O)N[C@@H](CC(C)C)C(=O)N[C@@H](CO)C(=O)N[C@@H](CO)C(=O)N[C@H](C(=O)N[C@@H](CCC(=O)O)C(=O)N[C@H](C(=O)NCC(=O)N[C@@H](CO)C(=O)N[C@@H](CC(N)=O)C(=O)N[C@H](C(=O)N1C[C@H](O)C[C@H]1C(N)=O)[C@@H](C)O)C(C)C)[C@@H](C)O)N(C)C(=O)[C@H](C)NC(=O)CN(C)C(=O)[C@H](Cc1ccccc1)NC(=O)[C@H](CO)NC(=O)[C@H](CO)NC(=O)[C@H](CCCNC(=N)N)NC(=O)[C@H](CCC(N)=O)NC(=O)[C@H](CC(C)C)NC(=O)[C@H](Cc1ccccc1)NC(=O)[C@H](CC(=O)O)NC(=O)[C@H](C)NC(=O)[C@H](CC(C)C)NC(=O)[C@H](CCCNC(=N)N)NC(=O)[C@H](CCC(N)=O)NC(=O)[C@@H](NC(=O)[C@H](C)NC(=O)[C@@H]1CSSC[C@H](NC(=O)[C@H](CCCNC(=N)N)NC(=O)CC[C@H](NC(=O)CCCCCCCCCCCCCCCCCCC(=O)O)C(=O)O)C(=O)N[C@@H](CC(N)=O)C(=O)N[C@@H]([C@@H](C)O)C(=O)N[C@@H](C)C(=O)N[C@@H]([C@@H](C)O)C(=O)N1)[C@@H](C)O [Compound 49, [19CD]-isoGlu-R-C( )-NTAT-C( )-ATQRLADFLQRSSF-Gly(Me)-A-Ile(Me)-LSSTEVGSNT-Hyp-NH2] ({C20 diacid-γGlu}-RCNTATCATQRLADFLQRSSF[Sar]A[NMeI]LSSTEVGSNT[Hyp]-NH2; disulfide 2-7) | 0.15 nM | FD | FND | FND | 0.00406 | 36.7 h |
